This test has as its system adult males of Pseudococcus cryptus. Nature of the test: Biological assay of attracting activity using Petri dish (Table 1). Format: in vivo. On the procedure:
Biological Assay of Attracting Activity Using Petri Dish […] First, two square filter papers with an area of 1 cm^2 were placed on a Petri dish with a diameter of 90 mm. Thereafter, one paper was impregnated with each of sample solutions (shown in Tables 1 and 2) (100 μl of a stock solution in the case of each fraction shown in Table 1 and a crude extract shown in Table 2, and 10 μl of a stock solution in the case of an acetylated product shown in Table 2), and it was defined as a treated group. The other paper was impregnated with only a solvent (100 μl), and it was defined as a control group. […] The Petri dish was then capped. Approximately 10 to 60 minutes later, when the movement of the males stopped, the presence or absence of attracting activity was confirmed from the ratio of males attracted to each filter paper.

The structures appear in SMILES notation.

On to `C=C(C)CC(=O)OCC1CC(C(=C)C)C1(C)C` (stereo not shown) [formula (I), 3-isopropenyl-2,2-dimethylcyclobutylmethyl 3-methyl-3-butenoate], for which the “attracting activity towards adult males of Pseudococcus cryptus (in words)” value was “activity of attracting adult males of Pseudococcus cryptus”.

(Values after patent US7128926B2, “Ester compound and use thereof” (Incorporated Administrative Agency, National Agriculture …, priority 2002, dated 2006).)
